# Experimental data from patent EP4603105A1, “PHARMACEUTICAL COMPOSITION CONTAINING CYCLIC COMPOUND HAVING SELECTIVE KRAS INHIBITORY EFFECT AGAINST HRAS AND NRAS” (CHUGAI SEIYAKU KABUSHIKI KAISHA, priority 2022, dated 2024).
# *1 amine or outer side, *2 acyl side, *3 side chain or, on linkers, in order; H or OH if unused. Where a SMILES comes first, the peptide text is derived from it. Bridges are numbered along the chain shown (N, C = ends). [ ]: non-standard residue; d: D form. The star is where a group is joined. hPhe(3-Cl-4-CF3) = N[C@@H](CCc1ccc(C(F)(F)F)c(Cl)c1)C(=O)O; X19 = O=C([C@H](Cc1ccc(C(F)(F)F)cc1)N(CCCF)[*:1])[*:2]; NPrPhe(4-CF3) = CCCN[C@@H](Cc1ccc(C(F)(F)F)cc1)C(=O)O; NMeGly(cPent) = CN[C@H](C(=O)O)C1CCCC1; Ac4c(3,3-Me2) = CC1(C)CC(N)(C(=O)O)C1; NMeD = CN[C@@H](CC(=O)O)C(=O)O; NMeL = CN[C@@H](CC(C)C)C(=O)O; X10 = N#CCN(CC(=O)[*:2])[*:1]; Morpholide = C1CN(*)CCO1; NMeA = CN[C@@H](C)C(=O)O; Ac5c = NC1(C(=O)O)CCCC1; Aze = O=C(O)[C@@H]1CCN1; Sar = CNCC(=O)O
# Columns and labels:
# [1] = molecular target: GDP-bound NRAS wild-type protein (Homo sapiens, UniProt P01111); test: Binding to NRAS by surface plasmon resonance (SPR), KD and KD ratio to KRAS
# GDP-bound NRAS wild-type protein, sequence (P01111 whole entry): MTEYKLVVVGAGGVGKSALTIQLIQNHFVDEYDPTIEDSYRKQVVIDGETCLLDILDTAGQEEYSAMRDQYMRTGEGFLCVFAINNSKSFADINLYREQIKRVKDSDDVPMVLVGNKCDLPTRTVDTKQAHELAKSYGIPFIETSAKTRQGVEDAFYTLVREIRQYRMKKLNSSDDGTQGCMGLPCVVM
# In short: (§1)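 Single-cycle kinetics on GDP-loaded biotin-Avi RAS captured to ~100–300 RU; 75 s ascending injections, 100 µL/min, 30°C. HBS pH 7.4 + 10 mM MgCl2/10 µM GDP/4% DMSO. 1:1 fit, KD.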
# HRAS wild-type protein = HRAS wild-type protein (Homo sapiens, UniProt P01112); test: Binding to HRAS by surface plasmon resonance (SPR), KD and KD ratio to KRAS
# HRAS wild-type protein, sequence (P01112 whole entry): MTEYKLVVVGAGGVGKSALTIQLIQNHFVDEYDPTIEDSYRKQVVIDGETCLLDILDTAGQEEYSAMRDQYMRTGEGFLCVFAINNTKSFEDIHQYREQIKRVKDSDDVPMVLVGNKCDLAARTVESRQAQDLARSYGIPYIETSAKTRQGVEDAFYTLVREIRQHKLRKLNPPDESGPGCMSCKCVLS
# In short: as §1
# [2] = system: human lung cancer strain NCI-H441; format: cell-based
# In short: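 Proliferation was scored by […] measured after the reagent was added to cultures kept at 37°C in 5% carbon dioxide.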
# [3] = ratio of KD for GDP-bound NRAS wild-type protein to KD for KRAS
# [4] = ratio of KD for HRAS wild-type protein to KD for KRAS
# [5] = ratio of the KD value with respect to GDP-bound NRAS wild-type protein to the KD value with respect to KRAS
# [6] = ratio of the KD value with respect to HRAS wild-type protein to the KD value with respect to KRAS
# [7] = ratio of KD value for GDP-bound NRAS wild-type protein to KD value for KRAS (SPR)
# [8] = ratio of KD value for HRAS wild-type protein to KD value for KRAS (SPR)
SMILES,"NRAS /KRAS [1, 3]",HRAS /KRAS (HRAS wild-type protein; [4]),IC50 [2],"NRAS /KRAS [1, 5]",HRAS /KRAS (HRAS wild-type protein; [6]),"NRAS /KRAS [1, 7]",HRAS /KRAS (HRAS wild-type protein; [8])
CCCN1C(=O)CN(C)C(=O)CN(CC#N)C(=O)[C@H]([C@@H](C)CC)NC(=O)[C@H](CC(C)C)N(C)C(=O)C[C@@H](C(=O)N2CCOCC2)N(C)C(=O)[C@H](C2CCCC2)N(C)C(=O)C2(CCCC2)NC(=O)[C@@H]2CCCN2C(=O)[C@H](CCc2ccc(C(F)(F)F)c(Cl)c2)NC(=O)CN(C)C(=O)[C@@H]1Cc1ccc(C(F)(F)F)cc1 [PP0254] ([NMeL]I[X10][Sar][NPrPhe(4-CF3)][Sar][hPhe(3-Cl-4-CF3)]P[Ac5c][NMeGly(cPent)][NMeD]-Morpholide; lactam N-11),B (a compound having 3 or more and less than 10 is denoted as B),C (A compound having a KD ratio of 0.1 or more and less than 3 is denoted as C),5.6 nM,,,,
"CCCN1C(=O)CN(C)C(=O)CN(C)C(=O)[C@H]([C@@H](C)OC)NC(=O)[C@H](CC(C)C)N(C)C(=O)C[C@@H](C(=O)N2CCOCC2)N(C)C(=O)[C@H](C2CCCC2)N(C)C(=O)C2(CC(C)(C)C2)NC(=O)[C@@H]2CCCN2C(=O)[C@H](CCc2ccc(C(F)(F)F)c(Cl)c2)NC(=O)CN(C)C(=O)[C@@H]1Cc1ccc(C(F)(F)F)cc1 [PP1963] ([NMeL]T(Me)[Sar][Sar][NPrPhe(4-CF3)][Sar][hPhe(3-Cl-4-CF3)]P[Ac4c(3,3-Me2)][NMeGly(cPent)][NMeD]-Morpholide; lactam N-11)",,,9.1 nM,B (a compound having 3 or more and less than 10 is denoted as B),C (A compound having a KD ratio of 0.1 or more and less than 3 is denoted as C),,
CC[C@H](C)[C@@H]1NC(=O)[C@H](CC(C)C)N(C)C(=O)C[C@@H](C(=O)N2CCOCC2)N(C)C(=O)[C@H](C2CCCC2)N(C)C(=O)C2(CCCC2)NC(=O)[C@@H]2CCCN2C(=O)[C@H](CCc2ccc(C(F)(F)F)c(Cl)c2)NC(=O)CN(C)C(=O)[C@H](Cc2ccc(C(F)(F)F)cc2)N(CCCF)C(=O)[C@@H]2CCN2C(=O)[C@H](C)N(C)C1=O [PP0525] ([NMeL]I[NMeA][Aze][X19][Sar][hPhe(3-Cl-4-CF3)]P[Ac5c][NMeGly(cPent)][NMeD]-Morpholide; lactam N-11),,,2.1 nM,C (A compound having a KD ratio of 0.1 or more and less than 3 is denoted as C),B (a compound having 3 or more and less than 10 is denoted as B),,
CCO[C@@H]1C[C@H]2C(=O)NC3(CCC3)C(=O)N(C)[C@@H](C3CCCC3)C(=O)N(C)[C@H](C(=O)N(C)C)CC(=O)N(C)[C@@H](CC3CCC3)C(=O)N[C@@H]([C@@H](C)CC)C(=O)N(C)CC(=O)N(C)[C@H]3CCCCCN(C3=O)[C@@H](Cc3ccc(C(F)(F)F)cc3)C(=O)N(C)CC(=O)N[C@@H](CCc3cc(F)c(C(F)(F)F)c(F)c3)C(=O)N2C1 [PP0668],,,22.7 nM,B (a compound having 3 or more and less than 10 is denoted as B),B (a compound having 3 or more and less than 10 is denoted as B),,
CCC[C@H]1C(=O)N[C@@H]([C@@H](C)CC)C(=O)N(C)CC(=O)N(C)[C@H]2C/C=C\CCN(C2=O)[C@@H](Cc2ccc(C(F)(F)F)cc2)C(=O)N(C)CC(=O)N[C@@H](CCc2cc(F)c(C(F)(F)F)c(F)c2)C(=O)N2C[C@H](OCC)C[C@H]2C(=O)NC2(CC(F)(F)C2)C(=O)N(C)[C@@H](C2CCCC2)C(=O)N(C)[C@H](C(=O)N(C)CC)CC(=O)N1C [PP1735],,,2.2 nM,,,AA (a compound having 20 or more is denoted as AA),A (a compound having 10 or more and less than 20 is denoted as A)
CC[C@H](C)[C@@H]1NC(=O)[C@H](CC(F)(F)F)N(C)C(=O)C[C@@H](C(=O)N(C)C)N(C)C(=O)[C@H](C2CCCC2)N(C)C(=O)C2(CC(C)(C)C2)NC(=O)[C@@H]2CC(F)(F)CN2C(=O)[C@H](CCc2cc(F)c(C(F)(F)F)c(F)c2)NC(=O)CN(C)C(=O)[C@H](Cc2ccc(C(F)(F)F)cc2)N2CC/C=C\C[C@@H](C2=O)N(C)C(=O)CN(C)C1=O [PP1710],,,4.1 nM,,,A (a compound having 10 or more and less than 20 is denoted as A),B (a compound having 3 or more and less than 10 is denoted as B)
CCCN(C)C(=O)[C@@H]1CC(=O)N(C)[C@@H](CC)C(=O)N[C@@H]([C@@H](C)CC)C(=O)N(C)CC(=O)N(C)[C@H]2C/C=C\CCN(C2=O)[C@@H](Cc2ccc(C(F)(F)F)cc2)C(=O)N(C)CC(=O)N[C@@H](CCc2cc(F)c(C(F)(F)F)c(F)c2)C(=O)N2C[C@H](OCC3CC3)C[C@H]2C(=O)NC2(CCC2)C(=O)N(C)[C@@H](C2CCCC2)C(=O)N1C [PP2913],A (a compound having 10 or more and less than 20 is denoted as A),A (a compound having 10 or more and less than 20 is denoted as A),10.3 nM,,,,
CCC[C@H]1C(=O)N[C@@H]([C@@H](C)CC)C(=O)N(C)CC(=O)N(C)[C@H]2C/C=C\CCN(C2=O)[C@@H](Cc2ccc(C(F)(F)F)cc2)C(=O)N(C)CC(=O)N[C@@H](CCc2cc(F)c(C(F)(F)F)c(F)c2)C(=O)N2C[C@H](OCC)C[C@H]2C(=O)NC2(CC(C)(C)C2)C(=O)N(C)[C@@H](C2CCCC2)C(=O)N(C)[C@H](C(=O)N(C)C)CC(=O)N1C [PP1645],,,1.8 nM,,,A (a compound having 10 or more and less than 20 is denoted as A),A (a compound having 10 or more and less than 20 is denoted as A)
C#CC[C@H]1C(=O)N[C@@H]([C@@H](C)CC)C(=O)N(C)CC(=O)N(C)[C@H]2CCCCCN(C2=O)[C@@H](Cc2ccc(C(F)(F)F)cc2)C(=O)N(C)CC(=O)N[C@@H](CCc2cc(F)c(C(F)(F)F)c(F)c2)C(=O)N2C[C@H](OCC)C[C@H]2C(=O)NC2(CCC2)C(=O)N(C)[C@@H](C2CCCC2)C(=O)N(C)[C@H](C(=O)N2CCOCC2)CC(=O)N1C [PP0681],,,24.2 nM,B (a compound having 3 or more and less than 10 is denoted as B),B (a compound having 3 or more and less than 10 is denoted as B),,
CCCN1C(=O)[C@@H]2CCN2C(=O)CN(CC#N)C(=O)[C@H]([C@@H](C)CC)NC(=O)[C@H](CC(C)C)N(C)C(=O)C[C@@H](C(=O)N2CCOCC2)N(C)C(=O)[C@H](C2CCCC2)N(C)C(=O)C2(CCCC2)NC(=O)[C@@H]2CCCN2C(=O)[C@H](CCc2ccc(C(F)(F)F)c(Cl)c2)NC(=O)CN(C)C(=O)[C@@H]1Cc1ccc(C(F)(F)F)cc1 [PP0275] ([NMeL]I[X10][Aze][NPrPhe(4-CF3)][Sar][hPhe(3-Cl-4-CF3)]P[Ac5c][NMeGly(cPent)][NMeD]-Morpholide; lactam N-11),C (A compound having a KD ratio of 0.1 or more and less than 3 is denoted as C),C (A compound having a KD ratio of 0.1 or more and less than 3 is denoted as C),9.3 nM,,,,
CC[C@H](C)[C@@H]1NC(=O)[C@H](CC(C)C)N(C)C(=O)C[C@@H](C(=O)N2CCOCC2)N(C)C(=O)[C@H](C2CCCC2)N(C)C(=O)C2(CCCC2)NC(=O)[C@@H]2CCCN2C(=O)[C@H](CCc2ccc(C(F)(F)F)c(Cl)c2)NC(=O)CN(C)C(=O)[C@H](Cc2ccc(OC(F)(F)F)cc2)N2CCCC[C@@H](C2=O)N(C)C(=O)CN(C)C1=O [PP0536],,,21.8 nM,B (a compound having 3 or more and less than 10 is denoted as B),B (a compound having 3 or more and less than 10 is denoted as B),,
CC[C@H](C)[C@@H]1NC(=O)[C@H](CC(C)C)N(C)C(=O)C[C@@H](C(=O)N2CCOCC2)N(C)C(=O)[C@H](C2CCCC2)N(C)C(=O)C2(CC2)NC(=O)[C@@H]2CCCN2C(=O)[C@H](CCc2cc(F)c(C(F)(F)F)c(F)c2)NC(=O)CN(C)C(=O)[C@H](Cc2ccc(C(F)(F)F)cc2)N2CCCC[C@@H](C2=O)N(C)C(=O)CN(C)C1=O [PP0559],,,23.1 nM,B (a compound having 3 or more and less than 10 is denoted as B),B (a compound having 3 or more and less than 10 is denoted as B),,
CC[C@H](C)[C@@H]1NC(=O)[C@H](CC2CCC2)N(C)C(=O)C[C@@H](C(=O)N(C)C)N(C)C(=O)[C@H](C2CCCC2)N(C)C(=O)C2(CC(C)(C)C2)NC(=O)[C@@H]2C[C@H](C)CN2C(=O)[C@H](CCc2cc(F)c(C(F)(F)F)c(F)c2)NC(=O)CN(C)C(=O)[C@H](Cc2ccc(C(F)(F)F)cc2)N2CC/C=C\C[C@@H](C2=O)N(C)C(=O)CN(C)C1=O [PP1684],,,7.7 nM,,,A (a compound having 10 or more and less than 20 is denoted as A),A (a compound having 10 or more and less than 20 is denoted as A)
CCO[C@@H]1C[C@H]2C(=O)NC3(CCC3)C(=O)N(C)[C@@H](CC(F)F)C(=O)N(C)[C@H](C(=O)N3CCOCC3)CC(=O)N(C)[C@@H](CC(C)C)C(=O)N[C@@H]([C@@H](C)CC)C(=O)N(C)CC(=O)N(C)[C@H]3CCCCCN(C3=O)[C@@H](Cc3ccc(C(F)(F)F)cc3)C(=O)N(C)CC(=O)N[C@@H](CCc3cc(F)c(C(F)(F)F)c(F)c3)C(=O)N2C1 [PP0822],B (a compound having 3 or more and less than 10 is denoted as B),B (a compound having 3 or more and less than 10 is denoted as B),1990 nM,,,,
CC[C@H](C)[C@@H]1NC(=O)[C@H](C(C)C)N(C)C(=O)C[C@@H](C(=O)N(C)C)N(C)C(=O)[C@H](C2CCCC2)N(C)C(=O)C2(CC(C)(C)C2)NC(=O)[C@@H]2C[C@H](C)CN2C(=O)[C@H](CCc2ccc(C(F)(F)F)c(OC)c2)NC(=O)CN(C)C(=O)[C@H](Cc2ccc(C(F)(F)F)cc2)N2CC/C=C\C[C@@H](C2=O)N(C)C(=O)CN(C)C1=O [PP2005],,,10.7 nM,A (a compound having 10 or more and less than 20 is denoted as A),A (a compound having 10 or more and less than 20 is denoted as A),,
